Here are results for one compound from patent US6605619B1, “Nitroxides as protectors against oxidatives stress” (The United States of America as represented by the …, priority 1992, dated 2003).

Marks after values point to notes of the source that are not given here.

For one data set, the system named is DNA-Fe(II). Kind of data set: Reaction of nitroxide with DNA-Fe(II), EPR spin-loss and OD353nm. Type of data set: biochemical, Salmon. The note with it: hypoxic mixing, 0.1 mg/ml Salmon DNA, 50 mM MOPS pH 7.0, 22° C. As for the experimental part: All solutions always contained 0.1 mg/ml Salmon DNA. The appearance of DNA-Fe(III) was spectrophotometrically monitored at 353 nm, whereas the spin-loss of CHD was monitored by following its EPR signal. To study the time-dependence of ΔOD353nm (∘), 1 mM CHD was mixed with 0.1 mM Fe(II). To follow the spin-loss of CHD (□), 1 mM Fe(II) was mixed with 0.1 mM CHD.
It was also questioned whether the aerobic and hypoxic protection by CHD to H2O2 exposure was a result of CHD directly accepting electrons from ferrous ions, thereby preventing generation of .OH. Because cellular iron is chelated, the possible reaction of nitroxide with chelated iron(II) was examined by repeating the experiment in the presence of DNA. To study the possibility of nitroxide-induced oxidation of transition metals, CHD was hypoxically mixed with iron(II) in the presence of 0.1 mg/ml Salmon DNA. Consequently, DNA-Fe(III) was formed and the nitroxide EPR signal disappeared. The reaction kinetics were investigated by maintaining either CHD or Fe(II) in excess while the absorbance due to DNA-Fe(III) and the nitroxide spin-loss were monitored respectively (FIG. 6). Both the decay of the EPR signal and the appearance of the OD353nm obeyed pseudo 1st order kinetics from which the 2nd order reaction rate constant was calculated as 44 M^−1s^−1 or 33 M^−1s^−1 using the data from EPR or optical absorption, respectively.

Data set [1] can be described thus: SOD-inhibitable ferricytochrome c reduction assay, rate constants of reaction with O2 (SOD-like activity). In kind it is biochemical. As to conditions: low ionic strength (10 mM HEPES), pH 7.0, 22° C. The text has this: As a further check, the reaction of representatives of both 5- and 6-membered cyclic nitroxides with O2 was studied. The SOD-inhibitable ferricytochrome c reduction assay (Fridovich, Handbook of Methods for Oxygen Radical Research, 213-215, 1985) was used to determine rate constants of reaction with O2. […] The reaction was started by adding 0.01 U/ml XO and the rate of ferricytochrome c reduction, in the absence (V) and in the presence (v) of various nitroxides, was spectrophotometrically followed at 550 nm. Both reference and sample cuvettes contained all the reagents, with the reference cuvette containing 100 units/ml SOD, thereby eliminating spurious reactions from interfering with the determination of rate constants. Data were analyzed by plotting V/v as a function of [nitroxide] and k1 was calculated, knowing kCytC+superoxide, according to:
(V/v)−1=k1x[nitroxide]/kCytC+superoxidex[Cyt−c^III].

A short description of data set [2]: H2O2 accumulation and decay in tissue culture exposed to HX/XO (H2O2 selective electrode). As to conditions: presence of CHD. In kind it is cell-based, Chinese hamster. As for the experimental part:
Chinese hamster V79 cells were plated in full medium and incubated at 37° C. with 5 mM HX+0.04 U/ml XO, sampled at various time points, and assayed for H2O2 using a hydrogen peroxide selective electrode.
Hydrogen peroxide was assayed using a YSI Model 27 Industrial Analyzer (Yellow Springs Instruments) equipped with a selective electrode for H2O2. For analysis of cellular preparations, the cells, except during the brief time required for removal of aliquots for analysis, were kept in T25 culture flasks maintained at 37° C. in complete medium (pH 7.2). Aliquots of 25 μl were sampled from the reaction or cell preparation system at varying time points and injected into the analyzer. [H2O2] was determined after calibrating the instrument with known concentrations of H2O2. The concentrations of standard H2O2 solutions were calibrated using iodometric assay (Hochanadel, J. Phys. Chem., 56, 587-594, 1952).

A short description of data set [3]: EPR signal of nitroxides exposed to O2 flux formed by HX/XO (spin-loss). In kind it is biochemical. As to conditions: % from total R′RNO + R′RNOH after exposure to 5 mM HX + 0.03 U/ml XO in air-saturated PBS pH 7.2. As for the experimental part:
For EPR experiments, samples (0.05-0.1 ml) either of solutions of chemicals or cell suspensions were drawn by a syringe into a gas-permeable teflon capillary of 0.8 mm inner diameter, 0.05 mm wall thickness (Zeus Industrial Products, Inc. Raritan, N.J.). Each capillary was folded twice, inserted into a narrow quartz tube which was open at both ends (2.5 mm ID), and then placed horizontally into the EPR cavity. During the experiments, gases of desired compositions were blown around the sample without having to disturb the alignment of the tube within the EPR cavity. EPR spectra were recorded in a Varian E4 (or E9) X-band spectrometer, with field set at 3357 G, modulation frequency of 100 KHz, modulation amplitude of 1 G and non-saturating microwave power. The EPR spectrometer was interfaced to an IBM-PC through an analog-to-digital converter and a data translation hardware (DT2801) and the spectra were digitized using commercial acquisition software, enabling subtraction of background signals. To study the kinetics of the spin-loss, the spectra were deliberately overmodulated, and the magnetic field was kept constant while the intensity of the EPR signal was followed.

The test system of the next data set is V79 cells. In words: Nitroxide intracellular localization by EPR with trioxalato-chromiate. Type of data set: cell-based, Chinese hamster.
Data set [4] has as its system Chinese hamster V79 cells. Kind of data set: Protection of cells exposed to HX/XO, clonogenic survival. In kind it is cell-based. As to conditions: 0.05 U/ml XO + 0.5 mM HX, 37° C.; 5 mM nitroxide; 100 U/ml catalase; SOD; 500 μM DF preincubated 2 h. As for the experimental part:
Chinese hamster V79 cells were grown in F12 medium supplemented with 10% fetal calf serum, penicillin, and streptomycin. Survival was assessed in all studies by the clonogenic assay. The plating efficiency range between 80-90%. Stock cultures of exponentially growing cells were trypsinized, rinsed, and plated (5×10^5 cells/dish) into a number of 100 mm petri dishes and incubated 16 h at 37° C. prior to experimental protocols. Cells were exposed for 1 h at 37° C. to either 0.5 mM hypoxanthine (HX)+0.05 U/ml of xanthine oxidase (XO) for varying lengths of time, or to H2O2 at different concentrations. To assess possible modulation in cytotoxicity, catalase, 100 U/ml; SOD, 100 μg/ml; DF, 500 μM; and 5 mM of each of the nitroxides from Table 1 were added to parallel cultures. CHD was prepared in a stock solution in ethanol and diluted into medium such that the final concentration was 5 mM. […] TEMPOL is water soluble and was prepared directly in tissue culture medium. […] DF was added either 2 h prior to or during treatment while the other agents were present only during HX/XO or H2O2 treatment. Following treatment, cells were rinsed, trypsinized, counted, and plated for macroscopic colony formation. For each dose determination cells were plated in triplicate and the experiments were repeated a minimum of two times. Plates were incubated 7 days, after which colonies were fixed with methanol/acetic acid, stained with crystal violet, and counted. Colonies containing >50 cells were scored. Error bars represent S.D. of the mean and are shown when larger than the symbol.

Regarding `CC1(C)CN([O])C2(CCCCC2)O1` [CHD, 2-spirocyclohexane-5,5-dimethyl-3-oxazolidinoxyl], in the data set with DNA-Fe(II) (EPR spin-loss), the “2nd order reaction rate constant with DNA-Fe(II), from EPR data” value is 44 M⁻¹ s⁻¹. In addition, the “2nd order reaction rate constant with DNA-Fe(II), from optical absorption” value in the data set with DNA-Fe(II) (OD353nm) amounted to 33 M⁻¹ s⁻¹. For the same compound, in data set [1], the “kR′RNO + O2” value was 3.5 × 10^3 M − 1^s − 1. Also, in data set [2], the “pattern of H2O2 generation by HX/XO” value is reported as “did not significantly alter”. Also, the “Steady state EPR signal (%)” value in data set [3] turned out to be 30%. Moreover, in the data set on V79 cells, the “intracellular location / freedom of motion” value is recorded as “located primarily in a membranous compartment”. Moreover, in data set [4], the “cell survival / protection from HX/XO” value is given as “fully protected”.
